# Tested on: S. aureus ATCC 13709
# Experiment: MIC, S. aureus ATCC 13709
# Type: cell-based
# Conditions: S. aureus; Alamar Blue read after overnight incubation at 35° C.
row,Compound,MIC Sa [µg/mL]
1,CNc1cc(F)cc2c1[nH]c1nc(Oc3cnc4cccnc4c3)nc(N3CC4C(N)C4C3)c12 (stereo not drawn) [Compound 4.035],≤0.5
2,CNc1cc(F)cc2c1[nH]c1nc(Oc3cnc(C)nc3)nc(N3CC(N)C4(CC4)C3)c12 (stereo not drawn) [Compound 4.069],≤0.5
3,CNc1cc(F)cc2c1[nH]c1nc(Oc3cnc(C)nc3)nc(N3CC4NCCC4(C)C3)c12 (stereo not drawn) [Compound 4.157],≤0.5
4,CNc1cc(F)cc2c1[nH]c1nc(Oc3cnc(C)nc3)nc(N3CCC4(CC4N)C3)c12 (stereo not drawn) [Compound 4.066],≤0.5
5,CNc1cc(F)cc2c1[nH]c1nc(Oc3cnc(C)nc3)nc(N3CC4(CC[C@H]4N)C3)c12 [Compound 4.105],≤0.5
6,CNc1cc(F)cc2c1[nH]c1nc(Oc3cnc(C)nc3)nc(N3CC4CC(N)C4C3)c12 (stereo not drawn) [Compound 4.084],≤0.5

# Same assay, conditions: Table 10; Sa = S. aureus
row,Compound,Sa MIC [µg/mL]
1,CNc1cc(F)cc2c1[nH]c1nc(Oc3cnc4cccnc4c3)nc(N3CC4C(N)C4C3)c12 (stereo not drawn) [Compound 4.035],≤0.5
2,CNc1cc(F)cc2c1[nH]c1nc(Oc3cnc(C)nc3)nc(N3CC(N)C4(CC4)C3)c12 (stereo not drawn) [Compound 4.069],≤0.5
3,CNc1cc(F)cc2c1[nH]c1nc(Oc3cnc(C)nc3)nc(N3CC4NCCC4(C)C3)c12 (stereo not drawn) [Compound 4.157],≤0.5
4,CNc1cc(F)cc2c1[nH]c1nc(Oc3cnc(C)nc3)nc(N3CCC4(CC4N)C3)c12 (stereo not drawn) [Compound 4.066],≤0.5
5,CNc1cc(F)cc2c1[nH]c1nc(Oc3cnc(C)nc3)nc(N3CC4(CC[C@H]4N)C3)c12 [Compound 4.105],≤0.5
6,CNc1cc(F)cc2c1[nH]c1nc(Oc3cnc(C)nc3)nc(N3CC4CC(N)C4C3)c12 (stereo not drawn) [Compound 4.084],≤0.5

# Tested on: Y. pestis CO92 pgm-
# Experiment: not given
# Type: cell-based
# Conditions: Table 10
row,Compound,Yp MIC [µg/mL]
1,CNc1cc(F)cc2c1[nH]c1nc(Oc3cnc4cccnc4c3)nc(N3CC4C(N)C4C3)c12 (stereo not drawn) [Compound 4.035],≤0.5
2,CNc1cc(F)cc2c1[nH]c1nc(Oc3cnc(C)nc3)nc(N3CC(N)C4(CC4)C3)c12 (stereo not drawn) [Compound 4.069],≤0.5
3,CNc1cc(F)cc2c1[nH]c1nc(Oc3cnc(C)nc3)nc(N3CCC4(CC4N)C3)c12 (stereo not drawn) [Compound 4.066],≤0.5
4,CNc1cc(F)cc2c1[nH]c1nc(Oc3cnc(C)nc3)nc(N3CC4(CC[C@H]4N)C3)c12 [Compound 4.105],≤0.5
5,CNc1cc(F)cc2c1[nH]c1nc(Oc3cnc(C)nc3)nc(N3CC4CC(N)C4C3)c12 (stereo not drawn) [Compound 4.084],≤0.5

# Tested on: E. coli ATCC 25922
# Experiment: MIC, E. coli ATCC 25922
# Type: cell-based
# Conditions: E. coli; Alamar Blue read after overnight incubation at 35° C.
row,Compound,MIC Ec [µg/mL]
1,CNc1cc(F)cc2c1[nH]c1nc(Oc3cnc4cccnc4c3)nc(N3CC4C(N)C4C3)c12 (stereo not drawn) [Compound 4.035],≤0.5
2,CNc1cc(F)cc2c1[nH]c1nc(Oc3cnc(C)nc3)nc(N3CC(N)C4(CC4)C3)c12 (stereo not drawn) [Compound 4.069],≤0.5
3,CNc1cc(F)cc2c1[nH]c1nc(Oc3cnc(C)nc3)nc(N3CC4NCCC4(C)C3)c12 (stereo not drawn) [Compound 4.157],≤0.5
4,CNc1cc(F)cc2c1[nH]c1nc(Oc3cnc(C)nc3)nc(N3CCC4(CC4N)C3)c12 (stereo not drawn) [Compound 4.066],≤0.5
5,CNc1cc(F)cc2c1[nH]c1nc(Oc3cnc(C)nc3)nc(N3CC4(CC[C@H]4N)C3)c12 [Compound 4.105],≤0.5
6,CNc1cc(F)cc2c1[nH]c1nc(Oc3cnc(C)nc3)nc(N3CC4CC(N)C4C3)c12 (stereo not drawn) [Compound 4.084],≤0.5

# Same assay, conditions: Table 10; Ec = E. coli, strain not stated
row,Compound,Ec MIC [µg/mL]
1,CNc1cc(F)cc2c1[nH]c1nc(Oc3cnc4cccnc4c3)nc(N3CC4C(N)C4C3)c12 (stereo not drawn) [Compound 4.035],≤0.5
2,CNc1cc(F)cc2c1[nH]c1nc(Oc3cnc(C)nc3)nc(N3CC(N)C4(CC4)C3)c12 (stereo not drawn) [Compound 4.069],≤0.5
3,CNc1cc(F)cc2c1[nH]c1nc(Oc3cnc(C)nc3)nc(N3CC4NCCC4(C)C3)c12 (stereo not drawn) [Compound 4.157],≤0.5
4,CNc1cc(F)cc2c1[nH]c1nc(Oc3cnc(C)nc3)nc(N3CCC4(CC4N)C3)c12 (stereo not drawn) [Compound 4.066],≤0.5
5,CNc1cc(F)cc2c1[nH]c1nc(Oc3cnc(C)nc3)nc(N3CC4(CC[C@H]4N)C3)c12 [Compound 4.105],≤0.5
6,CNc1cc(F)cc2c1[nH]c1nc(Oc3cnc(C)nc3)nc(N3CC4CC(N)C4C3)c12 (stereo not drawn) [Compound 4.084],≤0.5

# Tested on: F. tularensis holarctica LVS
# Experiment: microbe, parasite or virus in culture
# Type: cell-based
# Conditions: Table 10; Ft = F. tularensis, strain not stated
row,Compound,Ft MIC [µg/mL]
1,CNc1cc(F)cc2c1[nH]c1nc(Oc3cnc4cccnc4c3)nc(N3CC4C(N)C4C3)c12 (stereo not drawn) [Compound 4.035],1
2,CNc1cc(F)cc2c1[nH]c1nc(Oc3cnc(C)nc3)nc(N3CC(N)C4(CC4)C3)c12 (stereo not drawn) [Compound 4.069],2
3,CNc1cc(F)cc2c1[nH]c1nc(Oc3cnc(C)nc3)nc(N3CCC4(CC4N)C3)c12 (stereo not drawn) [Compound 4.066],1
4,CNc1cc(F)cc2c1[nH]c1nc(Oc3cnc(C)nc3)nc(N3CC4(CC[C@H]4N)C3)c12 [Compound 4.105],1
5,CNc1cc(F)cc2c1[nH]c1nc(Oc3cnc(C)nc3)nc(N3CC4CC(N)C4C3)c12 (stereo not drawn) [Compound 4.084],≤0.5

# Tested on: S. pneumoniae ATCC 51916
# Experiment: MIC, S. pneumoniae ATCC 51916
# Type: cell-based
# Conditions: Table 10; Spn = S. pneumoniae
row,Compound,Spn MIC [µg/mL]
1,CNc1cc(F)cc2c1[nH]c1nc(Oc3cnc4cccnc4c3)nc(N3CC4C(N)C4C3)c12 (stereo not drawn) [Compound 4.035],≤0.5
2,CNc1cc(F)cc2c1[nH]c1nc(Oc3cnc(C)nc3)nc(N3CC(N)C4(CC4)C3)c12 (stereo not drawn) [Compound 4.069],≤0.5
3,CNc1cc(F)cc2c1[nH]c1nc(Oc3cnc(C)nc3)nc(N3CC4NCCC4(C)C3)c12 (stereo not drawn) [Compound 4.157],≤0.5
4,CNc1cc(F)cc2c1[nH]c1nc(Oc3cnc(C)nc3)nc(N3CCC4(CC4N)C3)c12 (stereo not drawn) [Compound 4.066],≤0.5
5,CNc1cc(F)cc2c1[nH]c1nc(Oc3cnc(C)nc3)nc(N3CC4(CC[C@H]4N)C3)c12 [Compound 4.105],≤0.5
6,CNc1cc(F)cc2c1[nH]c1nc(Oc3cnc(C)nc3)nc(N3CC4CC(N)C4C3)c12 (stereo not drawn) [Compound 4.084],≤0.5

# Tested on: P. aeruginosa ATCC 15692
# Experiment: MIC, P. aeruginosa ATCC 15692
# Type: cell-based
# Conditions: Table 10; Pa = P. aeruginosa
row,Compound,Pa MIC [µg/mL]
1,CNc1cc(F)cc2c1[nH]c1nc(Oc3cnc4cccnc4c3)nc(N3CC4C(N)C4C3)c12 (stereo not drawn) [Compound 4.035],4
2,CNc1cc(F)cc2c1[nH]c1nc(Oc3cnc(C)nc3)nc(N3CC(N)C4(CC4)C3)c12 (stereo not drawn) [Compound 4.069],4
3,CNc1cc(F)cc2c1[nH]c1nc(Oc3cnc(C)nc3)nc(N3CC4NCCC4(C)C3)c12 (stereo not drawn) [Compound 4.157],8
4,CNc1cc(F)cc2c1[nH]c1nc(Oc3cnc(C)nc3)nc(N3CCC4(CC4N)C3)c12 (stereo not drawn) [Compound 4.066],2
5,CNc1cc(F)cc2c1[nH]c1nc(Oc3cnc(C)nc3)nc(N3CC4(CC[C@H]4N)C3)c12 [Compound 4.105],1
6,CNc1cc(F)cc2c1[nH]c1nc(Oc3cnc(C)nc3)nc(N3CC4CC(N)C4C3)c12 (stereo not drawn) [Compound 4.084],1

# Tested on: K. pneumoniae ATCC 700603
# Experiment: MIC, K. pneumoniae ATCC 700603
# Type: cell-based
# Conditions: Table 10; Kpn = K. pneumoniae
row,Compound,Kpn MIC [µg/mL]
1,CNc1cc(F)cc2c1[nH]c1nc(Oc3cnc4cccnc4c3)nc(N3CC4C(N)C4C3)c12 (stereo not drawn) [Compound 4.035],2
2,CNc1cc(F)cc2c1[nH]c1nc(Oc3cnc(C)nc3)nc(N3CC(N)C4(CC4)C3)c12 (stereo not drawn) [Compound 4.069],2
3,CNc1cc(F)cc2c1[nH]c1nc(Oc3cnc(C)nc3)nc(N3CC4NCCC4(C)C3)c12 (stereo not drawn) [Compound 4.157],4
4,CNc1cc(F)cc2c1[nH]c1nc(Oc3cnc(C)nc3)nc(N3CCC4(CC4N)C3)c12 (stereo not drawn) [Compound 4.066],2
5,CNc1cc(F)cc2c1[nH]c1nc(Oc3cnc(C)nc3)nc(N3CC4(CC[C@H]4N)C3)c12 [Compound 4.105],2
6,CNc1cc(F)cc2c1[nH]c1nc(Oc3cnc(C)nc3)nc(N3CC4CC(N)C4C3)c12 (stereo not drawn) [Compound 4.084],4

# Tested on: A. baumannii ATCC 19606
# Experiment: MIC, A. baumannii ATCC 19606
# Type: cell-based
# Conditions: Table 10; Ab = A. baumannii, strain not stated
row,Compound,Ab MIC [µg/mL]
1,CNc1cc(F)cc2c1[nH]c1nc(Oc3cnc4cccnc4c3)nc(N3CC4C(N)C4C3)c12 (stereo not drawn) [Compound 4.035],≤0.5
2,CNc1cc(F)cc2c1[nH]c1nc(Oc3cnc(C)nc3)nc(N3CC(N)C4(CC4)C3)c12 (stereo not drawn) [Compound 4.069],≤0.5
3,CNc1cc(F)cc2c1[nH]c1nc(Oc3cnc(C)nc3)nc(N3CC4NCCC4(C)C3)c12 (stereo not drawn) [Compound 4.157],≤0.5
4,CNc1cc(F)cc2c1[nH]c1nc(Oc3cnc(C)nc3)nc(N3CCC4(CC4N)C3)c12 (stereo not drawn) [Compound 4.066],≤0.5
5,CNc1cc(F)cc2c1[nH]c1nc(Oc3cnc(C)nc3)nc(N3CC4(CC[C@H]4N)C3)c12 [Compound 4.105],≤0.5
6,CNc1cc(F)cc2c1[nH]c1nc(Oc3cnc(C)nc3)nc(N3CC4CC(N)C4C3)c12 (stereo not drawn) [Compound 4.084],≤0.5

# Tested on: B. thailandensis ATCC E264
# Experiment: microbe, parasite or virus in culture
# Type: cell-based
# Conditions: not given
row,Compound,Bt MIC [µg/mL]
1,CNc1cc(F)cc2c1[nH]c1nc(Oc3cnc4cccnc4c3)nc(N3CC4C(N)C4C3)c12 (stereo not drawn) [Compound 4.035],≤0.5
2,CNc1cc(F)cc2c1[nH]c1nc(Oc3cnc(C)nc3)nc(N3CC(N)C4(CC4)C3)c12 (stereo not drawn) [Compound 4.069],≤0.5
3,CNc1cc(F)cc2c1[nH]c1nc(Oc3cnc(C)nc3)nc(N3CCC4(CC4N)C3)c12 (stereo not drawn) [Compound 4.066],≤0.5
4,CNc1cc(F)cc2c1[nH]c1nc(Oc3cnc(C)nc3)nc(N3CC4(CC[C@H]4N)C3)c12 [Compound 4.105],≤0.5
5,CNc1cc(F)cc2c1[nH]c1nc(Oc3cnc(C)nc3)nc(N3CC4CC(N)C4C3)c12 (stereo not drawn) [Compound 4.084],≤0.5

# Reference: US10865216B2, “Tricyclic Gyrase inhibitors” (MERCK SHARP & DOHME CORP., priority 2012, dated 2020)
